Results: PubChem BioAssay AID2060622 (Molecular Pharmacology Branch, DTP, NCI, 2025)

Tested on: 242566-281-R-J2-PDC complex spheroid viability
Assay: Anticancer human tumor 242566-281-R-J2-PDC patient-derived pancreatic carcinoma cell line growth inhibition [CLK]
Conditions: for IC50: curve of first compound; for viability, T/C: stronger effect = lower value
In short: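 Multi-cell-type spheroids combined patient-derived tumor cells with HUVEC endothelial cells and human mesenchymal stem cells. Paired agents were dosed in half-log steps down from about clinical Cmax, or from 10 microM where Cmax was unknown.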

[1] = second compound 0.0316 µM, first compound 0.00316 µM
[2] = second compound 0.0316 µM, first compound 0.01 µM
[3] = second compound 0.0316 µM, first compound 0.0316 µM
[4] = second compound 0.0316 µM, first compound 0.1 µM
[5] = second compound 0.1 µM, first compound 0.00316 µM
[6] = second compound 0.1 µM, first compound 0.01 µM
[7] = second compound 0.1 µM, first compound 0.0316 µM
[8] = second compound 0.1 µM, first compound 0.1 µM
[9] = second compound 0.316 µM, first compound 0.00316 µM
[10] = second compound 0.316 µM, first compound 0.01 µM
[11] = second compound 0.316 µM, first compound 0.0316 µM
[12] = second compound 0.316 µM, first compound 0.1 µM
[13] = second compound 1 µM, first compound 0.00316 µM
[14] = second compound 1 µM, first compound 0.01 µM
[15] = second compound 1 µM, first compound 0.0316 µM
[16] = second compound 1 µM, first compound 0.1 µM
[17] = second compound 3.16 µM, first compound 0.00316 µM
[18] = second compound 3.16 µM, first compound 0.01 µM
[19] = second compound 3.16 µM, first compound 0.0316 µM
[20] = second compound 3.16 µM, first compound 0.1 µM
[21] = second compound 10 µM, first compound 0.00316 µM
[22] = second compound 10 µM, first compound 0.01 µM
[23] = second compound 10 µM, first compound 0.0316 µM
[24] = second compound 10 µM, first compound 0.1 µM
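Further: spheroids exposed to compounds for 7 days before readout.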
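Wherever viability, T/C is given: 100% = DMSO vehicle control wells.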

Q: Which results are given for `CCc1c2c(nc3ccc(O)cc13)-c1cc3c(c(=O)n1C2)COC(=O)[C@]3(O)CC` + CNC(=O)c1ccc(Nc2nc(OC3CCCC3)c3c(-c4ccc5nc(C)oc5c4)c[nH]c3n2)c(OC)c1?
A: IC50 (second compound 0.0316 µM): 19.6 nM; IC50 (second compound 0.1 µM): 12.6 nM; IC50 (second compound 0.316 µM): 5.05 nM; IC50 (second compound 1 µM): < 3.16 nM; IC50 (second compound 3.16 µM): < 3.16 nM; IC50 (second compound 10 µM): < 3.16 nM; viability, T/C [1]: 93.6%; viability, T/C [2]: 70.8%; viability, T/C [3]: 35.2%; viability, T/C [4]: 12.7%; viability, T/C (second compound 0.0316 µM, first compound 0.316 µM): 5.19%; viability, T/C (second compound 0.0316 µM, first compound 1 µM): 1.82%; viability, T/C [5]: 76%; viability, T/C [6]: 58.4%; viability, T/C [7]: 17.6%; viability, T/C [8]: 8.93%; viability, T/C (second compound 0.1 µM, first compound 0.316 µM): 5.07%; viability, T/C (second compound 0.1 µM, first compound 1 µM): 2.28%; viability, T/C [9]: 69.5%; viability, T/C [10]: 21.2%; viability, T/C [11]: 8.24%; viability, T/C [12]: 5.13%; viability, T/C (second compound 0.316 µM, first compound 0.316 µM): 3.51%; viability, T/C (second compound 0.316 µM, first compound 1 µM): 3.02%; viability, T/C [13]: 29.4%; viability, T/C [14]: 9.85%; viability, T/C [15]: 4.94%; viability, T/C [16]: 3.94%; viability, T/C (second compound 1 µM, first compound 0.316 µM): 3.17%; viability, T/C (second compound 1 µM, first compound 1 µM): 2.15%; viability, T/C [17]: 23%; viability, T/C [18]: 7.75%; viability, T/C [19]: 4.05%; viability, T/C [20]: 3.95%; viability, T/C (second compound 3.16 µM, first compound 0.316 µM): 3.63%; viability, T/C (second compound 3.16 µM, first compound 1 µM): 1.54%; viability, T/C [21]: 18.5%; viability, T/C [22]: 7.14%; viability, T/C [23]: 4.31%; viability, T/C [24]: 3.19%; viability, T/C (second compound 10 µM, first compound 0.316 µM): 3.1%; viability, T/C (second compound 10 µM, first compound 1 µM): 2.01%

Q: Which results are given for `Cn1ncnc1[C@H]1c2n[nH]c(=O)c3cc(F)cc(c23)N[C@@H]1c1ccc(F)cc1` + CNC(=O)c1ccc(Nc2nc(OC3CCCC3)c3c(-c4ccc5nc(C)oc5c4)c[nH]c3n2)c(OC)c1?
A: IC50 (second compound 0.0316 µM): > 100 nM; IC50 (second compound 0.1 µM): > 100 nM; IC50 (second compound 0.316 µM): > 100 nM; IC50 (second compound 1 µM): > 100 nM; IC50 (second compound 3.16 µM): 31.1 nM; IC50 (second compound 10 µM): 2.02 nM; viability, T/C (second compound 0.0316 µM, first compound 0.000316 µM): 126%; viability, T/C (second compound 0.0316 µM, first compound 0.001 µM): 105%; viability, T/C [1]: 104%; viability, T/C [2]: 127%; viability, T/C [3]: 91.8%; viability, T/C [4]: 98.8%; viability, T/C (second compound 0.1 µM, first compound 0.000316 µM): 100%; viability, T/C (second compound 0.1 µM, first compound 0.001 µM): 123%; viability, T/C [5]: 84.1%; viability, T/C [6]: 92.3%; viability, T/C [7]: 98.5%; viability, T/C [8]: 87.8%; viability, T/C (second compound 0.316 µM, first compound 0.000316 µM): 104%; viability, T/C (second compound 0.316 µM, first compound 0.001 µM): 86.3%; viability, T/C [9]: 85.1%; viability, T/C [10]: 89.9%; viability, T/C [11]: 79.9%; viability, T/C [12]: 76.5%; viability, T/C (second compound 1 µM, first compound 0.000316 µM): 70.9%; viability, T/C (second compound 1 µM, first compound 0.001 µM): 67.2%; viability, T/C [13]: 62.5%; viability, T/C [14]: 64.8%; viability, T/C [15]: 56.1%; viability, T/C [16]: 52.4%; viability, T/C (second compound 3.16 µM, first compound 0.000316 µM): 55.5%; viability, T/C (second compound 3.16 µM, first compound 0.001 µM): 52%; viability, T/C [17]: 49.6%; viability, T/C [18]: 47.6%; viability, T/C [19]: 56.2%; viability, T/C [20]: 47%; viability, T/C (second compound 10 µM, first compound 0.000316 µM): 50.2%; viability, T/C (second compound 10 µM, first compound 0.001 µM): 53.8%; viability, T/C [21]: 45.2%; viability, T/C [22]: 49.8%; viability, T/C [23]: 50.3%; viability, T/C [24]: 49.1%
